The record followed here is patent US4476129A, “4-[2-[Bis(halophenyl)methoxy]-ethyl]-α-(substituted phenyl)-1-piperazinealkanol derivatives, processes for their preparation and pharmaceutical preparations containing them” (priority 1982, dated 1984).

Broadly, the IC50 is the concentration that inhibits the measured activity by half. A word on the ED50: it is the midpoint of the dose-response relation.

The structures appear in SMILES notation. “And” between values parts separate entries of the source, which are not always exact repeats. Identical values can stand only once. Counter-ions that a name gives are not always drawn. Like-named read-outs stand apart in the source and are kept apart here.

The subject of test [1] is dopamine uptake by striatal synaptosomes (corpus striatum of the rat). Put plainly: Inhibition of re-uptake of dopamine by striatal synaptosomes. The note with it: radioactive labelled dopamine. Type of test: biochemical. Here is the method: A. Inhibition of re-uptake of dopamine by striatal synaptosomes.
The re-uptake process is the most important physiological mechanism causing inactivation of neurotransmitters like dopamine, which are released into the synaptic cleft by a nervous impulse. Inhibition of the dopamine uptake will lead to increased concentration of dopamine in the synaptic cleft and potentiation of the dopamine effect on the post-synaptic receptor. This inhibition was examined in vitro by incubation of synaptosomes of the corpus striatum of the rat with radioactive labelled dopamine, as described by P. van der Zee and W. Hespe, Neuropharmacol. 17, 483-490 (1978). Measurements were made of the concentration of the test compound giving 50% inhibition of the uptake (IC50).

For test [2], the target named is T1, dopamine receptors (Rattus norvegicus, UniProt P61169).
T1 construct: membrane fraction of the corpus striatum of the rat; from tissue; host or cells: rat corpus striatum, membrane fraction
T1 sequence (P61169 whole entry): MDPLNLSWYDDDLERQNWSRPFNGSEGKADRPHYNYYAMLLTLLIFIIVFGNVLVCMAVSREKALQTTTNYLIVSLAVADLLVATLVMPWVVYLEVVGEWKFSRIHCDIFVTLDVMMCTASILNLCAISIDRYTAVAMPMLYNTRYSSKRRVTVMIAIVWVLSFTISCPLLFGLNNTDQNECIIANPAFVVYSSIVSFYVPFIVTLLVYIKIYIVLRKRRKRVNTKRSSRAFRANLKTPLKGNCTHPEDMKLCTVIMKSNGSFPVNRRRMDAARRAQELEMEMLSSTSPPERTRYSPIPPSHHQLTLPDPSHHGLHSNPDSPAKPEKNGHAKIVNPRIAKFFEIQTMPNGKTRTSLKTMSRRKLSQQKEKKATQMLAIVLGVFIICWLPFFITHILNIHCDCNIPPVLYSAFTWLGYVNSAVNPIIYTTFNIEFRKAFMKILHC
Put plainly: Affinity to dopamine receptors (receptor binding). How it is done: (§1) B. Affinity to dopamine receptors.
(§2) The affinity of the compounds to the dopamine receptors in a membrane fraction of the corpus striatum of the rat was determined as described by D. R. Burt et al., Mol. Pharmacol., 12, 800-812 (1976), dopamine and the dopamine antagonist haloperiodol being used as radioactive labelled ligands. The IC50-value is the concentration of the piperazine derivatives necessary to inhibit the specific binding of dopamine, or haloperiodol for 50%.

The target in test [3] is dopamine receptors. Put plainly: Affinity to dopamine receptors (receptor binding). Also on record: species or system rat. As to conditions: membrane fraction of corpus striatum of the rat, radioactive labelled dopamine as ligand. Here is the method: as §1, §2
In test [4] the test system is stereotyped behaviour in female Wistar rats. Put plainly: Stereotypy in the rat (stereotyped behaviour). Format: in vivo. As to conditions: 50% of the maximal effect, observed 15-300 minutes after administration; for ED50: Rattus norvegicus, po; for ED50, stereotyped behaviour: p.o. Here is the method:
C. Stereotypy in the rat.
The stereotyped behavior appearing in the rat after administration of centrally active dopaminergic substances can be regarded as a relevant test for antiparkinson agents.
The tests were carried out with female Wistar rats under conditions with a low level of stimuli. The behaviour of the rats was observed on 15, 30, 60, 120, 180, 240 and 300 minutes after administration of the substance, the following parameters being considered:
The total impression of the intensity of stereotypy was noted according to the following rating:
For each dose a group of four rats was used, so that the total score for the seven observations was maximally 7×4×3=84.

Setting [5] is: membrane fraction of corpus striatum of the rat, radioactive labelled haloperidol (dopamine antagonist) as ligand, read-out: IC50, receptor binding haloperidol.

Consider `CNC(=O)OC(CCN1CCN(CCOC(c2ccc(F)cc2)c2ccc(F)cc2)CC1)c1ccccc1` (stereo not drawn) [Compound 17, methylcarbaminic 3-[4-[2-[bis(4-fluorophenyl)methoxy]ethyl]-1-piperazinyl]-1-phenylpropyl]ester (Z)-2-butendioate (1:2)], for which the 50% inhibitory concentration (IC50) in test [1] came to 4.9 nM; at dopamine receptors [2], 97.3 nM; at dopamine receptors [3], 27.2 nM. This compound had a 50% effective dose (ED50) in test [4] of 4.3 mg/kg. In addition, in test [4], the “ED50, stereotyped behaviour” value turned out to be 7.2 mg/kg p.o.
Take `OC(CCN1CCN(CCOC(c2ccc(F)cc2)c2ccc(F)cc2)CC1)c1ccccc1` (stereo not drawn) [Compound 2, 4-[2-[bis(4-fluorophenyl)methoxy]ethyl]-α-phenyl-1-piperazinepropanol]: the concentration for half-maximal inhibition (IC50) in test [1] amounted to 1.3 nM; at dopamine receptors [2] it was 307 nM; at dopamine receptors [3], 13.3 nM.
For `O=C(CCCN1CCN(CCOC(c2ccc(F)cc2)c2ccc(F)cc2)CC1)c1ccc(F)cc1` [Compound 15, 4-[4-[2bis(4-fluorophenyl)methoxy]ethyl]-1-piperazinyl]-1-(4-fluorophenyl)-1-butanone dihydrochloride], the IC50 in test [1] was 5.2 nM; at dopamine receptors [2], 19 nM; on dopamine receptors [3], 291 nM. This compound had an ED50 in test [4] greater than 46 mg/kg.
As for `CCNC(=O)OC(CCN1CCN(CCOC(c2ccc(F)cc2)c2ccc(F)cc2)CC1)c1ccccc1` (stereo not drawn) [Compound 18, Ethylcarbaminic[3-[4-[2-[bis(fluorophenyl)methoxy]ethyl]-1-piperazinyl]-1-phenylpropyl]ester (Z)-2-butenedioate (1:2)], the IC50 in test [1] came out at 2.4 nM; at dopamine receptors [2] (setting [5]) it was 216 nM; at dopamine receptors [3], 16.9 nM. Besides, the median effective dose (ED50) in test [4] came to 11.2 mg/kg.
In the case of `OC(CN1CCN(CCOC(c2ccc(F)cc2)c2ccc(F)cc2)CC1)c1ccccc1` (stereo not drawn) [Compound 1, 4-[2-[bis(4-fluorophenyl)methoxy]ethyl]-α-phenyl-1-piperazineethanol], the values for the half-maximal inhibitory concentration (IC50) (in test [1]; on dopamine receptors [2] (setting [5]); on dopamine receptors [3]) were 26.5 nM, 780 nM and 46.7 nM, respectively. In test [4], it took a dose of 17.5 mg/kg to reach the 50% effect level (ED50).
On the same counts, the results for `CC(O)(CCN1CCN(CCOC(c2ccc(F)cc2)c2ccc(F)cc2)CC1)c1ccc(F)cc1` (stereo not drawn) [Compound 6, 4-[2-[bis(4-fluorophenyl)methoxy]ethyl]-α-(4-fluorophenyl)-α-methyl-1-piperazinepropanol] are 6.7 nM, 277 nM, 32.3 nM and 11.4 mg/kg.
`O=C(CCN1CCN(CCOC(c2ccc(F)cc2)c2ccc(F)cc2)CC1)c1ccccc1` [Compound 11, 3-[4-[2-[bis(4-fluorophenyl)methoxy]ethyl]-1-piperazinyl]-1-phenyl-1-propanone]: the 50% inhibitory concentration (IC50) is 39.7 nM in test [1], 268 nM on dopamine receptors [2] and 80.3 nM at dopamine receptors [3]. The same compound came in with a median effective dose (ED50) in test [4] of less than 5.5 mg/kg.
Turning to `CC(O)(CCN1CCN(CCOC(c2ccc(F)cc2)c2ccc(F)cc2)CC1)c1ccccc1` (stereo not drawn) [Compound 5, 4-[2-[bis(4-fluorophenyl)methoxy]ethyl]-α-phenyl-α-methyl-1-piperazinepropanol], the results for the 50% inhibitory concentration (IC50) (in test [1]; at dopamine receptors [2] (setting [5]); on dopamine receptors [3]) were 2.4 nM, 283 nM and 22.3 nM, respectively. Moreover, in test [4], the 50% effect level (ED50) was put at a dose of 14 mg/kg.
For the compound `Cl.Cl.O=C(CCCN1CCN(CCOC(c2ccc(F)cc2)c2ccc(F)cc2)CC1)c1ccccc1` [Compound 14, 4-[4-[2-[bis(4-fluorophenyl)methoxy]-ethyl]-1-piperazinyl]-1-phenyl-1-butanone dihydrochloride], the values for the IC50 (in test [1]; at dopamine receptors [2]; at dopamine receptors [3]) were 2.5 nM, 23.3 nM and 15.5 nM, respectively. Besides, in test [4], the median effective dose (ED50) turned out to be 18 mg/kg.
For `O=C(Nc1ccccc1)OC(CCN1CCN(CCOC(c2ccc(F)cc2)c2ccc(F)cc2)CC1)c1ccccc1` (stereo not drawn) [Compound 19, Phenylcarbaminic[3-[4-[2-[bis(4-fluorophenyl)methoxy]ethyl]-1-piperazinyl]-1-phenylpropyl]ester (Z)-2-butenedioate (1:2)], the half-inhibitory concentration (IC50) in test [1] worked out at 3.3 nM; at dopamine receptors [2] (setting [5]) it was 302 nM; at dopamine receptors [3], 43.4 nM.
Turning to `CC(C)C[C@H]1C(=O)N2CCC[C@H]2[C@]2(O)O[C@](NC(=O)[C@@H]3C=C4c5cccc6[nH]c(Br)c(c56)C[C@H]4N(C)C3)(C(C)C)C(=O)N12` [bromocriptine, reference compound], it took a dose of 25.3 mg/kg to reach the 50% effect level in test [4] (ED50).
For `OC(CCCN1CCN(CCOC(c2ccc(F)cc2)c2ccc(F)cc2)CC1)c1ccccc1` (stereo not drawn) [Compound 8, 4-[2-[bis(4-fluorophenyl)methoxy]ethyl]-α-phenyl-1-piperazinebutanol], the IC50 stood at 3.4 nM in test [1], 445 nM at dopamine receptors [2] (setting [5]) and 4 nM on dopamine receptors [3]. The compound also showed an ED50 in test [4] of 6.2 mg/kg. Besides, the “ED50, stereotyped behaviour” value in test [4] is given as 4.6 mg/kg p.o.
With `O=C(CCN1CCN(CCOC(c2ccc(F)cc2)c2ccc(F)cc2)CC1)c1ccc(F)cc1` [Compound 12, 3-[4-[2-[bis(4-fluorophenyl)methoxy]ethyl]-1-piperazinyl]-1-(4-fluorophenyl)-1-propanone], the IC50 in test [1] was found to be 35.4 nM; at dopamine receptors [2] (setting [5]), 467 nM; on dopamine receptors [3], 180 nM. This compound registered an ED50 in test [4] of 5.5 mg/kg.
Regarding `OC(CCN1CCN(CCOC(c2ccc(F)cc2)c2ccc(F)cc2)CC1)c1ccc(F)cc1` (stereo not drawn) [Compound 3, 4-[2-[bis(4-fluorophenyl)methoxy]ethyl]-α-(4-fluorophenyl)-1-piperazinepropanol], the figures for the IC50 (in test [1]; at dopamine receptors [2] (setting [5]); on dopamine receptors [3]) were 8.2 nM, 610 nM and 8.7 nM, respectively. The compound also gave an ED50 in test [4] of 1.7 mg/kg. In addition, in test [4], the “ED50, stereotyped behaviour” value is 2.3 mg/kg p.o. and 1.3 mg/kg p.o.
Take `CCC(O)(CCN1CCN(CCOC(c2ccc(F)cc2)c2ccc(F)cc2)CC1)c1ccccc1` (stereo not drawn) [Compound 7, 4-[2-[bis(4-fluorophenyl)methoxy]ethyl]-α-ethyl-α-phenyl-1-piperazinepropanol]: the 50% inhibitory concentration (IC50) stood at 22.1 nM in test [1], 361 nM at dopamine receptors [2] (setting [5]) and 63 nM on dopamine receptors [3]. The compound also displayed an ED50 in test [4] of 26 mg/kg.
Consider `COC(CCN1CCN(CCOC(c2ccc(F)cc2)c2ccc(F)cc2)CC1)c1ccccc1.Cl.Cl` (stereo not drawn) [Compound 16, 1-[2-[bis-(4-fluorophenyl)methoxy]ethyl]-4-(3-phenyl-3-methoxypropyl]piperazine dihydrochloride], for which the 50% inhibitory concentration (IC50) came to 13.2 nM in test [1], 523 nM on dopamine receptors [2] and 50 nM at dopamine receptors [3]. This compound registered an ED50 in test [4] of 4.6 mg/kg.
On the same counts, the results for `Cl.Cl.OC(CCCN1CCN(CCOC(c2ccc(F)cc2)c2ccc(F)cc2)CC1)c1ccc(F)cc1` (stereo not drawn) [Compound 9, 4-[2-[bis(4-fluorophenyl)methoxy]ethyl]-α-(4-fluorophenyl)-1-piperazinebutanol dihydrochloride] are 2.8 nM, 492 nM, 18.1 nM and less than 5 mg/kg.
For `O=C(CN1CCN(CCOC(c2ccc(F)cc2)c2ccc(F)cc2)CC1)c1ccccc1` [Compound 10, 2-[4-[2-[bis(4-fluorophenyl)methoxy]ethyl]-1-piperazinyl]-1-phenylethanonedihydrochloride], the IC50 worked out at 28.3 nM in test [1], 524 nM on dopamine receptors [2] (setting [5]) and 55 nM on dopamine receptors [3].
Consider `OC(Cc1ccccc1)CN1CCN(CCOC(c2ccc(F)cc2)c2ccc(F)cc2)CC1` (stereo not drawn) [Compound 4, 4-[2-[bis(4-fluorophenyl)methoxy]ethyl]-α-(phenylmethyl)-1-piperazineethanol], for which the concentration for half-maximal inhibition (IC50) was determined as 5.4 nM in test [1], 546 nM on dopamine receptors [2] (setting [5]) and 30.5 nM on dopamine receptors [3]. Also, the ED50 in test [4] was roughly 6 mg/kg.
Regarding `Cl.Cl.O=C(Cc1ccccc1)CN1CCN(CCOC(c2ccc(F)cc2)c2ccc(F)cc2)CC1` [Compound 13, 1-[4-[2-[bis(4-fluorophenyl)methoxy]ethyl]-1-piperazinyl]-3-phenyl-2-propanone dihydrochloride], the IC50 in test [1] is 27 nM; on dopamine receptors [2], 545 nM; at dopamine receptors [3], 76 nM. Further, the 50% effective dose (ED50) in test [4] is 9.1 mg/kg.
In test [4], `c1cnc(N2CCN(Cc3ccc4c(c3)OCO4)CC2)nc1` [piribedil, reference compound] returned a 50% effective dose (ED50) of 99.5 mg/kg.
